Data on one molecule can be found in patent US8222270B2 (Medicis Pharmaceutical Corporation, priority 2008, dated 2012).

A short description of the series: Physicochemical properties of the drug substance (solubility, pKa). The procedure:
Physicochemical Properties: • Physical Form: Crystalline solid that varies in colour from white to off-white or buff. […] It can be made soluble to the extent of at least 100 mg/mL in methanol (as a salt) upon the addition of a few drops of hydrochloric or acetic acid.

SMILES strings stand for the structures.

One may read the pKa as the negative logarithm of the acid dissociation constant. The term solubility denotes the concentration that dissolves in the medium under given conditions. As for `CC(C)Cn1cnc2c(N)nc3ccccc3c21` [imiquimod, 1-(2-methylpropyl)-1H-imidazo[4,5-c]quinolin-4-amine], the “Solubility in fatty acids such as oleic acid and isostearic acid” value was “Soluble”. The same molecule registered a pKa (UV spectroscopy and pH-solubility) of roughly 7.5. In addition, for the setting “except at extremely low pH”, the “Solubility in most common organic solvents and in aqueous systems” value is “Practically insoluble”. Further, the solubility (methanol, upon addition of a few drops of hydrochloric or acetic acid, read-out: Solubility in methanol (as a salt)) is no less than 100 mg/mL.
